Source: ChEMBL document CHEMBL1201862, “PubChem BioAssay data set” (2004)
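Step 1: Grow cells in 96-well plates. Step 2: Expose to compound for 48 hours at 5 concentrations. Step 3: Interpolate endpoints linearly; if unreached, use highest concentration. GI50: concentration for 50% inhibition of growth.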 Activity calls are given as the source filed them. No stated cut-off is given here; in the data, active = GI50 up to about 1.1 µM and inactive = higher.

Tests used:
Test in all cases: DTP human tumour cell line panel, 48 h
XF498 = test system: XF498
ACHN = test system: ACHN
UACC-62 = test system: UACC-62
RPMI-8226 = test system: RPMI-8226
DMS-114 = test system: DMS-114
HT-29 = test system: HT-29
HOP-92 = test system: HOP-92
SK-MEL-2 = test system: SK-MEL-2
SF-539 = test system: SF-539
DLD-1 = test system: DLD-1
SNB-75 = test system: SNB-75
SF-268 = test system: SF-268
COLO 205 = test system: COLO 205
DMS-273 = test system: DMS-273
M19-MEL = test system: M19-MEL
Malme-3M = test system: Malme-3M
HCC 2998 = test system: HCC 2998
OVCAR-5 = test system: OVCAR-5
NCI-H522 = test system: NCI-H522
RXF 393 = test system: RXF 393
SK-MEL-5 = test system: SK-MEL-5
MOLT-4 = test system: MOLT-4
IGROV-1 = test system: IGROV-1
EKVX = test system: EKVX
SK-MEL-28 = test system: SK-MEL-28
K562 = test system: K562
HOP-18 = test system: HOP-18
LOX IMVI = test system: LOX IMVI
SNB-19 = test system: SNB-19
HCT-116 = test system: HCT-116
NCI-H23 = test system: NCI-H23
A498 = test system: A498
OVCAR-3 = test system: OVCAR-3
OVCAR-4 = test system: OVCAR-4
KM12 = test system: KM12
OVCAR-8 = test system: OVCAR-8
NCI-H460 = test system: NCI-H460
KM-20L2 = test system: KM-20L2
TK-10 = test system: TK-10
HL-60 = test system: HL-60
HOP-62 = test system: HOP-62
NCI-H226 = test system: NCI-H226
SW-620 = test system: SW-620
CCRF-CEM = test system: CCRF-CEM
SK-OV-3 = test system: SK-OV-3
LXFL 529 = test system: LXFL 529
HCT-15 = test system: HCT-15
A549 = test system: A549
U-251 = test system: U-251
786-0 = test system: 786-0
SN12C = test system: SN12C
M14 = test system: M14
CAKI-1 = test system: CAKI-1
SF-295 = test system: SF-295
UACC-257 = test system: UACC-257
SNB-78 = test system: SNB-78
SR = test system: SR
UO-31 = test system: UO-31

Measured: GI50

Cc1cc(=O)oc2cc(OCc3nc4ccccc4c(=O)[nH]3)ccc12
inactive: XF498 > 100 µM | ACHN > 100 µM | UACC-62 > 100 µM | RPMI-8226 > 100 µM | DMS-114 > 100 µM | HT-29 > 100 µM | HOP-92 > 100 µM | SK-MEL-2 > 100 µM | SF-539 > 100 µM | DLD-1 > 100 µM | SNB-75 > 100 µM | SF-268 > 100 µM | COLO 205 > 100 µM | DMS-273 > 100 µM | M19-MEL > 100 µM | Malme-3M > 100 µM | HCC 2998 > 100 µM | OVCAR-5 > 100 µM | NCI-H522 > 100 µM | RXF 393 > 100 µM | SK-MEL-5 > 100 µM | MOLT-4 > 100 µM | IGROV-1 > 100 µM | EKVX > 100 µM | SK-MEL-28 > 100 µM | K562 > 100 µM | HOP-18 > 100 µM | LOX IMVI > 100 µM | SNB-19 > 100 µM | HCT-116 > 100 µM | NCI-H23 > 100 µM | A498 > 100 µM | OVCAR-3 > 100 µM | OVCAR-4 > 100 µM | KM12 > 100 µM | OVCAR-8 > 100 µM | NCI-H460 > 100 µM | KM-20L2 > 100 µM | TK-10 > 100 µM | HL-60 > 100 µM | HOP-62 > 100 µM | NCI-H226 > 100 µM | SW-620 > 100 µM | CCRF-CEM > 100 µM | SK-OV-3 > 100 µM | LXFL 529 > 100 µM | A549 > 100 µM | U-251 > 100 µM | 786-0 > 100 µM | SN12C > 100 µM | M14 > 100 µM | CAKI-1 > 100 µM | SF-295 > 100 µM
> 100 µM: HCT-15

O=C(CSc1nnc(-c2ccc(/N=C\c3ccc(Cl)cc3)cc2)o1)Nc1ccc([N+](=O)[O-])cc1
18.4 µM: HCT-15
inactive: XF498 22.9 µM | ACHN 11.9 µM | UACC-62 18.9 µM | RPMI-8226 2.45 µM | DMS-114 16.2 µM | HT-29 19.5 µM | SK-MEL-2 25.4 µM | SNB-75 25.4 µM | SF-268 24.3 µM | UACC-257 21.5 µM | COLO 205 35.2 µM | DMS-273 16.5 µM | M19-MEL 17.1 µM | Malme-3M 92.3 µM | NCI-H522 20.9 µM | SNB-78 20 µM | SR 19 µM | RXF 393 19.6 µM | SK-MEL-5 18.4 µM | MOLT-4 15.7 µM | EKVX > 100 µM | SK-MEL-28 18.5 µM | K562 21.2 µM | HOP-18 29 µM | LOX IMVI 10.6 µM | SNB-19 16.6 µM | HCT-116 2.58 µM | NCI-H23 19.4 µM | OVCAR-4 26.2 µM | KM12 > 10 µM | OVCAR-8 37.6 µM | NCI-H460 36.4 µM | KM-20L2 27.2 µM | TK-10 51.4 µM | HL-60 26.4 µM | HOP-62 32.1 µM | NCI-H226 21.9 µM | SW-620 17.1 µM | CCRF-CEM 18.5 µM | SK-OV-3 35.9 µM | LXFL 529 15.8 µM | A549 39.9 µM | U-251 19.3 µM | UO-31 18.4 µM | 786-0 19.8 µM | SN12C 21.7 µM | M14 19.4 µM | SF-295 30.2 µM

NC(=S)N/N=C1/CN(c2ccc(Cl)c(Cl)c2)CC(=O)C1c1nc2ccccc2s1 (stereo not drawn)
> 100 µM: HCT-15
inactive: XF498 > 100 µM | ACHN 93.3 µM | UACC-62 55.7 µM | RPMI-8226 79.1 µM | DMS-114 51.8 µM | HT-29 81.5 µM | HOP-92 > 100 µM | SK-MEL-2 > 100 µM | SF-539 51.5 µM | DLD-1 > 100 µM | SNB-75 28.5 µM | SF-268 46.8 µM | UACC-257 35.2 µM | COLO 205 > 100 µM | DMS-273 > 100 µM | M19-MEL > 100 µM | Malme-3M > 100 µM | HCC 2998 > 100 µM | OVCAR-5 > 100 µM | NCI-H522 36.1 µM | SNB-78 > 100 µM | RXF 393 > 100 µM | SK-MEL-5 > 100 µM | IGROV-1 > 100 µM | EKVX > 100 µM | SK-MEL-28 92.3 µM | K562 43 µM | LOX IMVI 59.6 µM | SNB-19 56.8 µM | HCT-116 35.6 µM | NCI-H23 45.1 µM | A498 > 100 µM | OVCAR-3 67 µM | OVCAR-4 92.7 µM | KM12 42.9 µM | OVCAR-8 76.7 µM | NCI-H460 > 100 µM | KM-20L2 > 100 µM | TK-10 > 100 µM | HL-60 68.9 µM | HOP-62 > 100 µM | NCI-H226 78.7 µM | SW-620 > 100 µM | CCRF-CEM 66.2 µM | SK-OV-3 > 100 µM | LXFL 529 37.8 µM | A549 > 100 µM | U-251 67.1 µM | UO-31 38.7 µM | 786-0 > 100 µM | SN12C 95.7 µM | M14 > 100 µM | CAKI-1 > 100 µM | SF-295 46.9 µM
